The text below walks through data of ChEMBL document CHEMBL1152499, “Novel l-adenosine analogs as cardioprotective agents” (2009).

Test [1] has as its system Heart. Kind of test: Cardioprotective activity in isolated Langendorff ischemia-reperfused Swiss Webster mouse heart assessed as increase in functional recovery of contractility. The test is classed as tissue-based.
Test [2] deals with Heart. In words: Cardioprotective activity in isolated Langendorff ischemia-reperfused Swiss Webster mouse heart assessed as prolongation of time to ischemic contracture. The test is classed as functional.
In test [3] the test system is Heart. In words: Cardioprotective activity in isolated Langendorff ischemia-reperfused Swiss Webster mouse heart assessed as total tissue necrotic area. The test is classed as functional.

The source made the active and inactive calls. The rule behind the calls is not given here.

`CN(C)c1ncnc2c1ncn2[C@H]1O[C@@H](CO)[C@H](N)[C@@H]1O`: the result with Heart [1] was Active. The Activity in the test on Heart [2] was found to be 14.5 min; in the test on Heart [3], 19.1%.

Take `Nc1ncnc2c1ncn2[C@@H]1O[C@H](CO)[C@@H](O)[C@H]1O` [ADENOSINE]: the Activity was 13.6 min with Heart [2] and 11.5% in the test on Heart [3].

Consider `CNC(=O)[C@@H]1O[C@H](n2cnc3c(NC)ncnc32)[C@@H](O)[C@H]1N`, for which the result in the test on Heart [1], in the test with Heart [2] and in the test on Heart [3] was inactive.
